Assay results reported in ChEMBL document CHEMBL4507278 (2021).

Key:
[1] = molecular target: Ephrin type-A receptor 6 (Homo sapiens) (UniProt Q9UF33); conditions: Compound concentration 1000.0 nM
[2] = molecular target: Mitogen-activated protein kinase 8 (Homo sapiens) (UniProt P45983); conditions: Compound concentration 1000.0 nM
[3] = molecular target: Mitogen-activated protein kinase 14 (Homo sapiens) (UniProt Q16539); conditions: Compound concentration 1000.0 nM
[4] = system: Phosphatidylinositol 4,5-bisphosphate 3-kinase catalytic subunit alpha isoform (Homo sapiens), P42336 [M1043I]; conditions: Compound concentration 1000.0 nM
[5] = molecular target: Ephrin type-B receptor 6 (Homo sapiens) (UniProt O15197); conditions: Compound concentration 1000.0 nM
[6] = system: Tyrosine-protein kinase ABL1 (Homo sapiens), P00519 [F317L]; conditions: Compound concentration 1000.0 nM
[7] = molecular target: Atypical kinase COQ8A, mitochondrial (Homo sapiens) (UniProt Q8NI60); conditions: Compound concentration 1000.0 nM
[8] = molecular target: Cyclin-dependent kinase 7 (Homo sapiens) (UniProt P50613); conditions: Compound concentration 1000.0 nM
[9] = molecular target: Serine/threonine-protein kinase TAO1 (Homo sapiens) (UniProt Q7L7X3); conditions: Compound concentration 1000.0 nM
[10] = molecular target: SRSF protein kinase 3 (Homo sapiens) (UniProt Q9UPE1); conditions: Compound concentration 1000.0 nM
[11] = molecular target: Casein kinase I isoform alpha (Homo sapiens) (UniProt P48729); conditions: Compound concentration 1000.0 nM
[12] = system: Serine/threonine-protein kinase B-raf (Homo sapiens), P15056 [V600E]; conditions: Compound concentration 1000.0 nM
[13] = molecular target: Death-associated protein kinase 3 (Homo sapiens) (UniProt O43293); conditions: Compound concentration 1000.0 nM
[14] = molecular target: Cyclin-dependent kinase-like 1 (Homo sapiens) (UniProt Q00532); conditions: Compound concentration 1000.0 nM
[15] = molecular target: Dual specificity tyrosine-phosphorylation-regulated kinase 2 (Homo sapiens) (UniProt Q92630); conditions: Compound concentration 1000.0 nM
[16] = molecular target: NUAK family SNF1-like kinase 2 (Homo sapiens) (UniProt Q9H093); conditions: Compound concentration 1000.0 nM
[17] = molecular target: Mitogen-activated protein kinase kinase kinase 11 (Homo sapiens) (UniProt Q16584); conditions: Compound concentration 1000.0 nM
[18] = molecular target: Mast/stem cell growth factor receptor Kit (Homo sapiens) (UniProt P10721); conditions: Compound concentration 1000.0 nM
[19] = molecular target: Serine/threonine-protein kinase BRSK1 (Homo sapiens) (UniProt Q8TDC3); conditions: Compound concentration 1000.0 nM
[20] = molecular target: Mitogen-activated protein kinase 10 (Homo sapiens) (UniProt P53779); conditions: Compound concentration 1000.0 nM
[21] = molecular target: Leucine-rich repeat serine/threonine-protein kinase 2 (Homo sapiens) (UniProt Q5S007); conditions: Compound concentration 1000.0 nM
[22] = molecular target: Myotonin-protein kinase (Homo sapiens) (UniProt Q09013); conditions: Compound concentration 1000.0 nM
[23] = molecular target: Tyrosine-protein kinase JAK2 (Homo sapiens) (UniProt O60674); conditions: Compound concentration 1000.0 nM
[24] = molecular target: Rhodopsin kinase GRK7 (Homo sapiens) (UniProt Q8WTQ7); conditions: Compound concentration 1000.0 nM
[25] = system: Fibroblast growth factor receptor 3 (Homo sapiens), P22607 [G697C]; conditions: Compound concentration 1000.0 nM
[26] = molecular target: Mu-type opioid receptor (Homo sapiens) (UniProt P35372); conditions: Compound concentration 10.0 uM
[27] = molecular target: Dual specificity tyrosine-phosphorylation-regulated kinase 1A (Homo sapiens) (UniProt Q13627); conditions: Compound concentration 1000.0 nM
[28] = molecular target: Vascular endothelial growth factor receptor 2 (Homo sapiens) (UniProt P35968); conditions: Compound concentration 1000.0 nM
[29] = system: Receptor-type tyrosine-protein kinase FLT3 (Homo sapiens), P36888 [R834Q]; conditions: Compound concentration 1000.0 nM
[30] = molecular target: Serine/threonine-protein kinase 38-like (Homo sapiens) (UniProt Q9Y2H1); conditions: Compound concentration 1000.0 nM
[31] = molecular target: Serine/threonine-protein kinase Nek1 (Homo sapiens) (UniProt Q96PY6); conditions: Compound concentration 1000.0 nM
[32] = molecular target: Alpha-2C adrenergic receptor (Homo sapiens) (UniProt P18825); conditions: Compound concentration 10.0 uM
[33] = molecular target: cAMP-dependent protein kinase catalytic subunit alpha (Homo sapiens) (UniProt P17612); conditions: Compound concentration 1000.0 nM
[34] = molecular target: Serine/threonine-protein kinase SIK1 (Homo sapiens) (UniProt P57059); conditions: Compound concentration 1000.0 nM
[35] = molecular target: Serine/threonine-protein kinase TBK1 (Homo sapiens) (UniProt Q9UHD2); conditions: Compound concentration 1000.0 nM
[36] = molecular target: Serine/threonine-protein kinase PAK 1 (Homo sapiens) (UniProt Q13153); conditions: Compound concentration 1000.0 nM
[37] = system: Receptor-type tyrosine-protein kinase FLT3 (Homo sapiens), P36888 [UNDEFINED MUTATION]; conditions: Compound concentration 1000.0 nM
[38] = molecular target: Proto-oncogene tyrosine-protein kinase Src (Homo sapiens) (UniProt P12931); conditions: Compound concentration 1000.0 nM
[39] = molecular target: 5'-AMP-activated protein kinase catalytic subunit alpha-1 (Homo sapiens) (UniProt Q13131); conditions: Compound concentration 1000.0 nM
[40] = molecular target: Misshapen-like kinase 1 (Homo sapiens) (UniProt Q8N4C8); conditions: Compound concentration 1000.0 nM
[41] = molecular target: Calcium/calmodulin-dependent protein kinase type II subunit delta (Homo sapiens) (UniProt Q13557); conditions: Compound concentration 1000.0 nM
[42] = molecular target: Serine/threonine-protein kinase pim-3 (Homo sapiens) (UniProt Q86V86); conditions: Compound concentration 1000.0 nM
[43] = molecular target: Serine/threonine-protein kinase 35 (Homo sapiens) (UniProt Q8TDR2); conditions: Compound concentration 1000.0 nM
[44] = molecular target: MAP kinase-interacting serine/threonine-protein kinase 1 (Homo sapiens) (UniProt Q9BUB5); conditions: Compound concentration 1000.0 nM
[45] = molecular target: Histamine H3 receptor (Homo sapiens) (UniProt Q9Y5N1); conditions: Compound concentration 10.0 uM
Chain of Histamine H3 receptor (Homo sapiens) (Q9Y5N1 whole entry): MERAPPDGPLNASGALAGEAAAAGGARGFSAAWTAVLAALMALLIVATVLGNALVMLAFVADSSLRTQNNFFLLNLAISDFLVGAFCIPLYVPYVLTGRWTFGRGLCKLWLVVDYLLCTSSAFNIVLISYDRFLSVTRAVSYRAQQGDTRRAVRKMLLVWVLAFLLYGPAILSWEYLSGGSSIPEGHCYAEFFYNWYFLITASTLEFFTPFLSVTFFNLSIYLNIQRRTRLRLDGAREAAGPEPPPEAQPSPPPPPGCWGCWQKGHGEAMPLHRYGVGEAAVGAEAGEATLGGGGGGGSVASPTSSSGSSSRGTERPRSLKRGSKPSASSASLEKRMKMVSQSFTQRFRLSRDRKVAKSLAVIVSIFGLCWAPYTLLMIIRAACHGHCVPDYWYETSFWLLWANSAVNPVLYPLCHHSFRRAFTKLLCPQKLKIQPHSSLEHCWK

Chain of NUAK family SNF1-like kinase 2 (Homo sapiens) (Q9H093 whole entry): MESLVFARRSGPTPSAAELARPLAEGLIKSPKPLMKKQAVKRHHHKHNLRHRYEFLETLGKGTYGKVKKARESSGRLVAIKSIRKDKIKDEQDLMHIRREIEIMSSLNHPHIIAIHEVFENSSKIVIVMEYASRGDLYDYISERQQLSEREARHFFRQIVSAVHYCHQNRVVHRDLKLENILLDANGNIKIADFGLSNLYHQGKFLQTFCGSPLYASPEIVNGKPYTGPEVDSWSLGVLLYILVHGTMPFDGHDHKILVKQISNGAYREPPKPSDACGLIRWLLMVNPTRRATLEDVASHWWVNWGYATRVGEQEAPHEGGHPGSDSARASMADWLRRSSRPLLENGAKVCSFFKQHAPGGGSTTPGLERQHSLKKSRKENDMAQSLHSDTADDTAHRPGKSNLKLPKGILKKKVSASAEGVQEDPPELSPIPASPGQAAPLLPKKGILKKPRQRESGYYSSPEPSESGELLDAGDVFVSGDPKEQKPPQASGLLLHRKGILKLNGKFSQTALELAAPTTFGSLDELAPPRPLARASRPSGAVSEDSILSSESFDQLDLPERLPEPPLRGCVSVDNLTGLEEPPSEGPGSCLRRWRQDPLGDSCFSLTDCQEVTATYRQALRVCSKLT
Chain of Mitogen-activated protein kinase kinase kinase 11 (Homo sapiens) (Q16584 whole entry, looked up): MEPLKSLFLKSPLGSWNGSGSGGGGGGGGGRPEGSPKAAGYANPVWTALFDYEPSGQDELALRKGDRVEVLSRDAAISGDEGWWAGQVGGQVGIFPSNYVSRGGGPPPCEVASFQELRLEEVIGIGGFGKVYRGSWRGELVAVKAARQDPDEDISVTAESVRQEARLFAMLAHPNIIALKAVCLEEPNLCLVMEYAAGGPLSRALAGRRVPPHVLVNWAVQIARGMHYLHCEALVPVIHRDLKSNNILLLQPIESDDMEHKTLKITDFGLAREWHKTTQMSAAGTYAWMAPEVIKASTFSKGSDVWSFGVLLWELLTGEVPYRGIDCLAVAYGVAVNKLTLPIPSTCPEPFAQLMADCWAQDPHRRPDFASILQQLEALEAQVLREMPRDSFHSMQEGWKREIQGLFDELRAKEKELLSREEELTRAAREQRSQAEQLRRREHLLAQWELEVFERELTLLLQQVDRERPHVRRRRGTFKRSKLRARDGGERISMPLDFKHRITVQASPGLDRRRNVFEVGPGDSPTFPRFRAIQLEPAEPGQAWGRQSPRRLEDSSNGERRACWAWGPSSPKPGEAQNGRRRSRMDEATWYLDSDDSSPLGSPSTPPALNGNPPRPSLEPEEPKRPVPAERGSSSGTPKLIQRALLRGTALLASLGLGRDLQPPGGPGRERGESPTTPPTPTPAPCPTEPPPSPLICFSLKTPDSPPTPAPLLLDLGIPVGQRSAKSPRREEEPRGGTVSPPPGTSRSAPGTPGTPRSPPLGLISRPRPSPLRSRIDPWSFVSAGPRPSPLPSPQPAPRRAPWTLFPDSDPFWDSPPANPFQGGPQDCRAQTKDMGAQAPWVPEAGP
Chain of Alpha-2C adrenergic receptor (Homo sapiens) (P18825 whole entry): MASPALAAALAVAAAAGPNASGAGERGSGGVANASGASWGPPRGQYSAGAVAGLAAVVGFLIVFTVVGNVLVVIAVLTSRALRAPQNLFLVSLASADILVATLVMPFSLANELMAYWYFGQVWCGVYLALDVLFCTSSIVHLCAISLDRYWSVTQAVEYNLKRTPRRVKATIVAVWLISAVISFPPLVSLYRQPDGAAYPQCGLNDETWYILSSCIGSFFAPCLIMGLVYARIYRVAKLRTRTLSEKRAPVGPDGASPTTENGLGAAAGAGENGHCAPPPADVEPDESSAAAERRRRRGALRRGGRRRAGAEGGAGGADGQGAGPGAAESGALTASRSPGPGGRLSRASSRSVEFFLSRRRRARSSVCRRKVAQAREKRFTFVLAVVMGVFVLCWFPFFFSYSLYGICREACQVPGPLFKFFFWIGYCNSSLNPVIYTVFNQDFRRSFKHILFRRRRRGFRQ
Chain of Mu-type opioid receptor (Homo sapiens) (P35372 whole entry): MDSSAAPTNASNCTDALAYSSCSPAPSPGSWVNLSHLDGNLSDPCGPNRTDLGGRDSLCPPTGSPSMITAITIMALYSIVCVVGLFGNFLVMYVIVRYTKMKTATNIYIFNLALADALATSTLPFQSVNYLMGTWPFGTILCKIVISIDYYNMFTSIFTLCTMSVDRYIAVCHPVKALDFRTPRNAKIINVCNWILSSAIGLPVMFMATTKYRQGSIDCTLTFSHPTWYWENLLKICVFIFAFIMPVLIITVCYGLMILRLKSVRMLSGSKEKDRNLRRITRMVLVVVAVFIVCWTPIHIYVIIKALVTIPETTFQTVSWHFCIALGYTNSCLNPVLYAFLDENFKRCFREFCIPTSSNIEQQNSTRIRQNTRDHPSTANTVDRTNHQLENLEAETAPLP
Chain of Serine/threonine-protein kinase SIK1 (Homo sapiens) (P57059 whole entry): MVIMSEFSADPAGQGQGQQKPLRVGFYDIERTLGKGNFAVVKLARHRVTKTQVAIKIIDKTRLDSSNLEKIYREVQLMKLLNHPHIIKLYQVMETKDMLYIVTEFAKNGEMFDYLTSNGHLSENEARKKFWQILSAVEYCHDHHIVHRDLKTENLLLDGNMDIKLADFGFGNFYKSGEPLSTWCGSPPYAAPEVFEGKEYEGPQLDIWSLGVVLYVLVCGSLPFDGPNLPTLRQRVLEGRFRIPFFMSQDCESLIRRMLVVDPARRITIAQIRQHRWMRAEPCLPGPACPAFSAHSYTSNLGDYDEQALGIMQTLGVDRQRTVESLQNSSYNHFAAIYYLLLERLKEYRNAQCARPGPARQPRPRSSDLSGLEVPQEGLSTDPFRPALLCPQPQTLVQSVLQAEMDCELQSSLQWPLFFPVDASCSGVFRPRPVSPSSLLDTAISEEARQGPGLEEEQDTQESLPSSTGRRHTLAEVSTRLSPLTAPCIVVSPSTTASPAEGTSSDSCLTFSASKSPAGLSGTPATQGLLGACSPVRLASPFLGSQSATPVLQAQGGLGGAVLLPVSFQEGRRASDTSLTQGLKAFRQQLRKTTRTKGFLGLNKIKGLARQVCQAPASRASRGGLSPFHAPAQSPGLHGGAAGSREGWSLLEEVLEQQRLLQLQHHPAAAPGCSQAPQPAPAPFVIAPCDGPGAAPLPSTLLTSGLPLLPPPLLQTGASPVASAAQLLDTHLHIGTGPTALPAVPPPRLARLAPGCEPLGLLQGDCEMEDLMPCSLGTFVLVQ
Chain of Mast/stem cell growth factor receptor Kit (Homo sapiens) (P10721 whole entry): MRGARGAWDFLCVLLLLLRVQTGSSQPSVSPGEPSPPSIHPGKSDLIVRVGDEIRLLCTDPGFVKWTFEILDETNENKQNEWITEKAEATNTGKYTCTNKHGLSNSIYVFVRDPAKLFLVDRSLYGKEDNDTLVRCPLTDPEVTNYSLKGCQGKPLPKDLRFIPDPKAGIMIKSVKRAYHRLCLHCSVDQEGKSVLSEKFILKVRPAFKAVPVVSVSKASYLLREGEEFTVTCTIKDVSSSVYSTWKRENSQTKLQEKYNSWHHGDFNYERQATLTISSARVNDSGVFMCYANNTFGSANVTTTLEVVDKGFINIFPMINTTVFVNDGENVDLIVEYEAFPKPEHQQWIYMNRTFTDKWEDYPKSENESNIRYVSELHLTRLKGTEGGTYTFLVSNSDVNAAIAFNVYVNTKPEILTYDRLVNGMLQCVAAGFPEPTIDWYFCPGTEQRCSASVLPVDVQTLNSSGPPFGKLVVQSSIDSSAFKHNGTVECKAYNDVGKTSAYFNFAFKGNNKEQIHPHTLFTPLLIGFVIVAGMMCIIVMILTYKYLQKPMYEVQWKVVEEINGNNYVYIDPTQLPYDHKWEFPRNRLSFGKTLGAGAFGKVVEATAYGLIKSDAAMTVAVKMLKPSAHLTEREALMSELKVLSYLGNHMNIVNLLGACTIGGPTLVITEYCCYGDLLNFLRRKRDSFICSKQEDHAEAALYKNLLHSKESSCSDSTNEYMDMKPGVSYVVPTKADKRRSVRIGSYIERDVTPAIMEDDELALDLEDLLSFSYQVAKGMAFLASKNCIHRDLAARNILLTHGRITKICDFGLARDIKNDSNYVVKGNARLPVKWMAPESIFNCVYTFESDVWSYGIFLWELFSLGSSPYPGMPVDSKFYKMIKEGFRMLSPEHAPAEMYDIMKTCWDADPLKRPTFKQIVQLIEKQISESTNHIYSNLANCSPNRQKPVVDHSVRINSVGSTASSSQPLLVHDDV
Chain of Casein kinase I isoform alpha (Homo sapiens) (P48729 2-337 limits assumed): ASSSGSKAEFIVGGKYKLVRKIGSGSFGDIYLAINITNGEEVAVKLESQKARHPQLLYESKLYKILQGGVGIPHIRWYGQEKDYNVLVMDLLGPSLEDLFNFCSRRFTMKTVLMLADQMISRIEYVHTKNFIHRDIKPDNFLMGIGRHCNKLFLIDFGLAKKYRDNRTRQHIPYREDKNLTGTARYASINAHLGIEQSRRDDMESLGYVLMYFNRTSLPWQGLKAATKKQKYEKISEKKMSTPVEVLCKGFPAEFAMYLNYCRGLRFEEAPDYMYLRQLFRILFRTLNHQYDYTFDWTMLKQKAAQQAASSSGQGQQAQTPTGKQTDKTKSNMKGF

**Q.** For `CS(=O)(=O)NCC[C@H](NC(=O)c1cncc2c1cnn2-c1ccc(F)cc1)c1ccnc(S(C)(=O)=O)c1` [BI 9307], which residual activity [1] is on record?
**A.** 100%

**Q.** And the residual activity [2]?
**A.** 80%

**Q.** What about the residual activity [3] of the same compound?
**A.** 100%

**Q.** And the residual activity [4]?
**A.** 95%

**Q.** And the residual activity [5]?
**A.** 100%

**Q.** And the residual activity [6]?
**A.** 69%

**Q.** What about the residual activity [7] of the same compound?
**A.** 95%

**Q.** What about the residual activity [8] of the same compound?
**A.** 100%

**Q.** What about the residual activity [9] of the same compound?
**A.** 82%

**Q.** And the residual activity [10]?
**A.** 100%

**Q.** And the residual activity [11]?
**A.** 100%

**Q.** What about the residual activity [12] of the same compound?
**A.** 100%

**Q.** And the residual activity [13]?
**A.** 100%

**Q.** And the residual activity [14]?
**A.** 84%

**Q.** And the residual activity [15]?
**A.** 91%

**Q.** What about the residual activity [16] of the same compound?
**A.** 100%

**Q.** And the residual activity [17]?
**A.** 100%

**Q.** And the residual activity [18]?
**A.** 100%

**Q.** And the residual activity [19]?
**A.** 99%

**Q.** And the residual activity [20]?
**A.** 100%

**Q.** And the residual activity [21]?
**A.** 86%

**Q.** And the residual activity [22]?
**A.** 100%

**Q.** What about the residual activity [23] of the same compound?
**A.** 100%

**Q.** And the residual activity [24]?
**A.** 100%

**Q.** And the residual activity [25]?
**A.** 82%

**Q.** And the inhibition [26]?
**A.** -0.92%

**Q.** What about the residual activity [27] of the same compound?
**A.** 100%

**Q.** What about the residual activity [28] of the same compound?
**A.** 100%

**Q.** And the residual activity [29]?
**A.** 79%

**Q.** And the residual activity [30]?
**A.** 50%

**Q.** What about the residual activity [31] of the same compound?
**A.** 45%

**Q.** What about the inhibition [32] of the same compound?
**A.** -2.08%

**Q.** And the residual activity [33]?
**A.** 100%

**Q.** What about the residual activity [34] of the same compound?
**A.** 100%

**Q.** What about the residual activity [35] of the same compound?
**A.** 94%

**Q.** What about the residual activity [36] of the same compound?
**A.** 88%

**Q.** What about the residual activity [37] of the same compound?
**A.** 100%

**Q.** What about the residual activity [38] of the same compound?
**A.** 96%

**Q.** What about the residual activity [39] of the same compound?
**A.** 100%

**Q.** And the residual activity [40]?
**A.** 100%

**Q.** And the residual activity [41]?
**A.** 100%

**Q.** What about the residual activity [42] of the same compound?
**A.** 100%

**Q.** And the residual activity [43]?
**A.** 100%

**Q.** What about the residual activity [44] of the same compound?
**A.** 95%

**Q.** What about the inhibition [45] of the same compound?
**A.** 18.9%

**Q.** What does the source list for `CS(=O)(=O)c1cc(C2(NC(=O)c3cncc4c3cnn4-c3ccc(F)cc3)CC2)ccn1` [BI 639667]?
**A.** residual activity [1]: 100%; residual activity [2]: 95%; residual activity [3]: 100%; residual activity [4]: 93%; residual activity [5]: 100%; residual activity [6]: 68%; residual activity [7]: 100%; residual activity [8]: 90%; residual activity [9]: 94%; residual activity [10]: 100%; residual activity [11]: 96%; residual activity [12]: 94%; residual activity [13]: 98%; residual activity [14]: 69%; residual activity [15]: 95%; residual activity [16]: 100%; residual activity [17]: 100%; residual activity [18]: 96%; residual activity [19]: 74%; residual activity [20]: 100%; residual activity [21]: 43%; residual activity [22]: 99%; residual activity [23]: 100%; residual activity [24]: 96%; residual activity [25]: 91%; inhibition [26]: -7.9%; residual activity [27]: 81%; residual activity [28]: 77%; residual activity [29]: 75%; residual activity [30]: 34%; residual activity [31]: 45%; inhibition [32]: -6.8%; residual activity [33]: 100%; residual activity [34]: 100%; residual activity [35]: 94%; residual activity [36]: 100%; residual activity [37]: 70%; residual activity [38]: 100%; residual activity [39]: 99%; residual activity [40]: 100%; residual activity [41]: 76%; residual activity [42]: 100%; residual activity [43]: 100%; residual activity [44]: 47%; inhibition [45]: 29.6%
